Reference: BigSolDB 2.1

Work on `O=C(O)c1cccnc1Cl` yielded a solubility (mole fraction) (in 1,4-dioxane, 288.15 K) of 0.0088, a solubility (mole fraction) (in 1,4-dioxane, 293.15 K) of 0.0103 and a solubility (mole fraction) (in 1,4-dioxane, 298.15 K) of 0.012. The solubility (mole fraction) (in 1,4-dioxane, 303.15 K) was 0.0136, the solubility (mole fraction) (in 1,4-dioxane, 308.15 K) was 0.0155 and the solubility (mole fraction) (in 1,4-dioxane, 313.15 K) was 0.0176. It also gave a solubility (mole fraction) (in DMF, 273.15 K) of 0.124, a solubility (mole fraction) (in DMF, 278.15 K) of 0.149 and a solubility (mole fraction) (in DMF, 283.15 K) of 0.175. For the same molecule, the solubility (mole fraction) (in DMF, 288.15 K) was 0.2, the solubility (mole fraction) (in DMF, 293.15 K) was 0.228 and the solubility (mole fraction) (in DMF, 298.15 K) was 0.26. For the same molecule, the solubility (mole fraction) (in DMF, 303.15 K) was 0.291, the solubility (mole fraction) (in DMF, 308.15 K) was 0.327 and the solubility (mole fraction) (in DMF, 313.15 K) was 0.367. The solubility (mole fraction) (in NMP, 273.15 K) was 0.206, the solubility (mole fraction) (in NMP, 278.15 K) was 0.235 and the solubility (mole fraction) (in NMP, 283.15 K) was 0.265. For the same molecule, the solubility (mole fraction) (in NMP, 288.15 K) was 0.295, the solubility (mole fraction) (in NMP, 293.15 K) was 0.328 and the solubility (mole fraction) (in NMP, 298.15 K) was 0.36. It also gave a solubility (mole fraction) (in NMP, 303.15 K) of 0.397, a solubility (mole fraction) (in NMP, 308.15 K) of 0.437 and a solubility (mole fraction) (in NMP, 313.15 K) of 0.478. The solubility (mole fraction) (in acetone, 273.15 K) was 0.00893, the solubility (mole fraction) (in acetone, 278.15 K) was 0.0103 and the solubility (mole fraction) (in acetone, 283.15 K) was 0.0118. For the same molecule, the solubility (mole fraction) (in acetone, 288.15 K) was 0.0133, the solubility (mole fraction) (in acetone, 293.15 K) was 0.0149 and the solubility (mole fraction) (in acetone, 298.15 K) was 0.0166. For the same molecule, the solubility (mole fraction) (in acetone, 303.15 K) was 0.0184, the solubility (mole fraction) (in acetone, 308.15 K) was 0.0205 and the solubility (mole fraction) (in acetone, 313.15 K) was 0.0226. It also gave a solubility (mole fraction) (in acetonitrile, 273.15 K) of 0.00105, a solubility (mole fraction) (in acetonitrile, 278.15 K) of 0.00137 and a solubility (mole fraction) (in acetonitrile, 283.15 K) of 0.00174. The solubility (mole fraction) (in acetonitrile, 288.15 K) was 0.00214, the solubility (mole fraction) (in acetonitrile, 293.15 K) was 0.00263 and the solubility (mole fraction) (in acetonitrile, 298.15 K) was 0.00324. It also gave a solubility (mole fraction) (in acetonitrile, 303.15 K) of 0.00399, a solubility (mole fraction) (in ethanol, 273.15 K) of 0.00286 and a solubility (mole fraction) (in ethanol, 278.15 K) of 0.00363. It also gave a solubility (mole fraction) (in ethanol, 283.15 K) of 0.00461, a solubility (mole fraction) (in ethanol, 288.15 K) of 0.00563 and a solubility (mole fraction) (in ethanol, 293.15 K) of 0.00676. The solubility (mole fraction) (in ethanol, 298.15 K) was 0.00804, the solubility (mole fraction) (in ethanol, 303.15 K) was 0.00953 and the solubility (mole fraction) (in ethanol, 308.15 K) was 0.0112. The solubility (mole fraction) (in ethanol, 313.15 K) was 0.0129, the solubility (mole fraction) (in ethyl acetate, 273.15 K) was 0.0138 and the solubility (mole fraction) (in ethyl acetate, 278.15 K) was 0.0163. It also gave a solubility (mole fraction) (in ethyl acetate, 283.15 K) of 0.0189, a solubility (mole fraction) (in ethyl acetate, 288.15 K) of 0.0218 and a solubility (mole fraction) (in ethyl acetate, 293.15 K) of 0.0246. The solubility (mole fraction) (in ethyl acetate, 298.15 K) was 0.0276, the solubility (mole fraction) (in ethyl acetate, 303.15 K) was 0.0308 and the solubility (mole fraction) (in ethyl acetate, 308.15 K) was 0.0344. It also gave a solubility (mole fraction) (in ethyl acetate, 313.15 K) of 0.0382, a solubility (mole fraction) (in isopropanol, 273.15 K) of 0.00368 and a solubility (mole fraction) (in isopropanol, 278.15 K) of 0.00464. For the same molecule, the solubility (mole fraction) (in isopropanol, 283.15 K) was 0.00574, the solubility (mole fraction) (in isopropanol, 288.15 K) was 0.00697 and the solubility (mole fraction) (in isopropanol, 293.15 K) was 0.0083. The solubility (mole fraction) (in isopropanol, 298.15 K) was 0.00972, the solubility (mole fraction) (in isopropanol, 303.15 K) was 0.0113 and the solubility (mole fraction) (in isopropanol, 308.15 K) was 0.013. For the same molecule, the solubility (mole fraction) (in isopropanol, 313.15 K) was 0.0147, the solubility (mole fraction) (in methanol, 273.15 K) was 0.00227 and the solubility (mole fraction) (in methanol, 278.15 K) was 0.00283. For the same molecule, the solubility (mole fraction) (in methanol, 283.15 K) was 0.00347, the solubility (mole fraction) (in methanol, 288.15 K) was 0.00422 and the solubility (mole fraction) (in methanol, 293.15 K) was 0.00505. The solubility (mole fraction) (in methanol, 298.15 K) was 0.00598, the solubility (mole fraction) (in methanol, 303.15 K) was 0.00696 and the solubility (mole fraction) (in methanol, 308.15 K) was 0.00806. The solubility (mole fraction) (in methanol, 313.15 K) was 0.00927, the solubility (mole fraction) (in n-propanol, 273.15 K) was 0.00446 and the solubility (mole fraction) (in n-propanol, 278.15 K) was 0.00546. The solubility (mole fraction) (in n-propanol, 283.15 K) was 0.00667, the solubility (mole fraction) (in n-propanol, 288.15 K) was 0.00792 and the solubility (mole fraction) (in n-propanol, 293.15 K) was 0.00933. It also gave a solubility (mole fraction) (in n-propanol, 298.15 K) of 0.011, a solubility (mole fraction) (in n-propanol, 303.15 K) of 0.0125 and a solubility (mole fraction) (in n-propanol, 308.15 K) of 0.0144. It also gave a solubility (mole fraction) (in n-propanol, 313.15 K) of 0.0162, a solubility (mole fraction) (in water, 273.15 K) of 9.1e-05 and a solubility (mole fraction) (in water, 278.15 K) of 0.000104. The solubility (mole fraction) (in water, 283.15 K) was 0.00012, the solubility (mole fraction) (in water, 288.15 K) was 0.000136 and the solubility (mole fraction) (in water, 293.15 K) was 0.000153. It also gave a solubility (mole fraction) (in water, 298.15 K) of 0.000171, a solubility (mole fraction) (in water, 303.15 K) of 0.000191 and a solubility (mole fraction) (in water, 308.15 K) of 0.000216. It also gave a solubility (mole fraction) (in water, 313.15 K) of 0.000242.
